Ki data for 49 compounds are collected here from ChEMBL document CHEMBL1138679, “Three-dimensional quantitative structure-activity relationship analysis of a set of Plasmodium falciparum dihydrofolate reductase inhibitors using a pharmacophore generation approach” (J Med Chem, 2004).

As a reminder, the Ki is a dissociation constant, usually derived from enzyme kinetics or from competition with a known ligand.

Structures are written as SMILES.

The experiment deals with Bifunctional dihydrofolate reductase-thymidylate synthase (Plasmodium falciparum K1, UniProt P13922). As to the kind of experiment: Inhibition constant against Plasmodium falciparum dihydrofolate reductase.
Sequence of Bifunctional dihydrofolate reductase-thymidylate synthase (P13922 whole entry): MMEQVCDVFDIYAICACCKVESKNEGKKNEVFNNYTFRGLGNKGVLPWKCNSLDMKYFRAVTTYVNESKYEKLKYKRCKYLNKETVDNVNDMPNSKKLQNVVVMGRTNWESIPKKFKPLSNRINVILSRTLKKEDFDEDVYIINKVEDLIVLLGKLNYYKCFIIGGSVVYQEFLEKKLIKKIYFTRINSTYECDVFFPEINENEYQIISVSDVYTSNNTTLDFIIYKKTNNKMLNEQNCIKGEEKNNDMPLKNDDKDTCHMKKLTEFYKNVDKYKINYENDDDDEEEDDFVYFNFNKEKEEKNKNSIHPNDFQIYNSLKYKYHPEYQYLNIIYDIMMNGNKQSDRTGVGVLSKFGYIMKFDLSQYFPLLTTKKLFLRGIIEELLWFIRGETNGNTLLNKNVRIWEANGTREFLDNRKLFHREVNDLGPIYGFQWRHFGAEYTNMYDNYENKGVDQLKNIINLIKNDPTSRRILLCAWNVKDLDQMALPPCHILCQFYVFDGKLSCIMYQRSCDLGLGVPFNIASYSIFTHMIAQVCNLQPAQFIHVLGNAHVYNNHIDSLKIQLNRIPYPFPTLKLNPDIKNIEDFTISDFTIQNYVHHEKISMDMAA

The compound `CC1(C)N=C(N)N=C(N)N1OCCCOc1cc(Cl)c(Cl)cc1Cl` showed a Ki of 1.1 nM.
`Cc1cc2nc3n(c2cc1C)C(C)(C)NC(N)=N3` displayed an inhibitory constant (Ki) of 180 nM.
To `N=C(NO)c1ccc(Oc2cc(Cl)cc(Cl)c2)c([N+](=O)[O-])c1` belongs 1700 nM; to `Cc1nc(N)nc(N)c1-c1ccc(Cl)cc1`, 0.84 nM.
Compound `COC(=O)CCCc1nc(N)nc(N)c1-c1ccccc1` yielded a Ki of 10 nM.
`Cc1nc(N)nc(N)c1-c1ccccc1` registered a Ki of 110 nM.
The same measure for `Nc1ncc(-c2cccc(Cl)c2)c(N)n1`: 75 nM; for `Nc1ncc(-c2ccccc2)c(N)n1`: 100 nM; for `Nc1nc(N)c(-c2ccc(Cl)cc2)c(CCCc2ccccc2)n1`: 0.74 nM.
The same measure for `CCc1nc(N)nc(N)c1-c1ccc(C)cc1`: 1.1 nM.
In turn, `CCc1nc(N)nc(N)c1-c1ccc(C(C)(C)C)cc1` displayed an inhibition constant (Ki) of 0.77 nM.
Consider `Nc1nc(N)c(-c2cccc(Cl)c2)c(CCCc2ccccc2)n1`, for which the Ki came to 42 nM.
In the case of `Cc1nc(N)nc(N)c1-c1cccc(Cl)c1`, the affinity, expressed as Ki, was 83 nM.
To `CCc1nc(N)nc(N)c1-c1ccc(OCc2ccc(Cl)cc2Cl)c(OC)c1` belongs 9.6 nM; to `CCc1nc(N)nc(N)c1-c1ccccc1`, 100 nM; to `CCOc1c(Br)cc(-c2c(N)nc(N)nc2CC)cc1Br`, 37 nM.
The same measure for `CCc1nc(N)nc(N)c1-c1ccc(Cl)cc1Cl`: 0.92 nM; for `Nc1nc(N)c(-c2cccc(Cl)c2)c(CCOCCCOc2ccccc2)n1`: 13 nM.
To `COC(=O)CCCc1nc(N)nc(N)c1-c1ccc(Cl)cc1` belongs 0.14 nM; to `COc1ccc(CCCc2nc(N)nc(N)c2-c2cccc(Cl)c2)cc1`, 11 nM; to `CCc1nc(N)nc(N)c1-c1cccc(Cl)c1`, 72 nM.
For the compound `Nc1ncc(-c2ccc(Cl)cc2)c(N)n1`, the Ki was 0.74 nM.
The compound `CCc1nc(N)nc(N)c1-c1ccc(-c2ccccc2)cc1` gave a Ki of 90 nM.
The compound `CCc1nc(N)nc(N)c1-c1ccc(OC)cc1` came in with an inhibitory constant (Ki) of 1.3 nM.
`CCc1nc(N)nc(N)c1-c1ccc(Br)cc1` yielded a Ki of 0.84 nM.
For the compound `CCc1nc(N)nc(N)c1-c1cccc(OC)c1`, the affinity corresponds to a Ki of 36 nM.
To `C/N=C(\S)NNC(=O)c1cccn(Cc2cccc(Cl)c2)c1=O` belongs 900 nM.
To `Cc1[nH]c(N)cc2nc3ccccc3c1-2` belongs 2300 nM; to `N/C(=N/O)c1ccc(Oc2c(Cl)cncc2Cl)cc1`, 930 nM.
To `CCCCCCc1nc(N)nc(N)c1-c1ccccc1` belongs 10 nM; to `CCc1nc(N)nc(N)c1-c1ccc2c(c1)OCO2`, 72 nM.
`CC1(C)N=C(N)N=C(N)N1c1ccc(Br)cc1` had a Ki of 1.2 nM.
`CC1(C)N=C(N)N=C(N)N1c1ccccc1` registered an inhibition constant Ki of 140 nM.
To `CC1(C)N=C(N)N=C(N)N1c1ccc(F)cc1` belongs 170 nM; to `NC1=NCN(c2ccc(Cl)cc2)C(N)=N1`, 0.84 nM; to `NC1=NCN(c2ccccc2)C(N)=N1`, 85 nM.
`NC1=NCN(c2ccc(F)cc2)C(N)=N1` came in with an inhibition constant (Ki) of 88 nM.
Compound `N=C(S)N/N=C/c1ccc(Oc2ncc(C(F)(F)F)cc2Cl)cc1` had a Ki of 9000 nM.
To `N=C(NO)c1ccc(CNC(=O)c2ccc(Cl)cc2)cc1` belongs 1500 nM; to `NNc1nc2ccccc2nc1NN`, 8600 nM.
In the case of `N/C(=N\O)c1cccc(CS(=O)(=O)c2ccc(Cl)cc2)c1`, the affinity, expressed as Ki, was 800 nM.
Compound `C=CCNC(=S)NNC(=O)c1cccn(Cc2cccc(Cl)c2)c1=O` showed a Ki of 410 nM.
The same measure for `COC(=O)c1sccc1-c1ccc(/C(C)=N/NC(N)=O)o1`: 20000 nM; for `N/N=C(\S)Nc1ccc(OCc2ccccc2)cc1`: 2000 nM; for `C/C(=N\N=C(/N)S)c1ccc(Oc2c(Cl)cncc2Cl)cc1`: 1400 nM.
To `CC1(C)N=C(N)N=C(N)N1c1ccc(Cl)c(Cl)c1` [CHLORCYCLOGUANIL] belongs 1.1 nM; to `CC1(C)N=C(N)N=C(N)N1c1ccc(Cl)cc1` [CYCLOGUANIL], 1.1 nM; to `CCc1nc(N)nc(N)c1-c1ccc(Cl)c(Cl)c1` [ETOPRINE], 0.79 nM.
To `NC(=S)N/N=C/c1ccccc1` [PHENYLTHIOSEMICARBAZONE] belongs 31000 nM.
